# Data published in patent US20230148626A1, “PROTEIN-BASED FORMING AGENT, PREPARATION METHOD AND APPLICATION THEREOF” (NORTHEAST AGRICULTURAL UNIVERSITY, priority 2021, published 2023).
# Columns and labels:
# α-La [1] = biological target: T1, α-La (Bos taurus, UniProt P00711); assay: Binding isotherm: number of GA molecules bound per α-La molecule (endogenous fluorescence); settings: α-La 20 µmol/L, 25 °C
# T1 construct: purchased Davisco Foods International
# T1 sequence (P00711 20-142): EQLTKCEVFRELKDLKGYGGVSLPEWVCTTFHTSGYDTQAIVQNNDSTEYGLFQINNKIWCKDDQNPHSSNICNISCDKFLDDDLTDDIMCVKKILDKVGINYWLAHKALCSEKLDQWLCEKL
# Method: Determination of the number of molecules of glycyrrhizic acid binding α-La: under 25 degree Celsius (°C) and fixed concentration of α-La of 20 µmol/L, adjusting the concentration of GA (0 - 15.0 mM) to obtain a α-La-GA mixed solution; calculating an average value (v) of each protein molecule bound to surfactant molecules by measuring the endogenous fluorescence (λex = 295 nm) of α-La-GA mixed solution, and obtaining a binding isotherm from the change of the average number with the total concentration of GA as shown in FIG. 2.
# Binding isotherm allows a good understanding of protein-glycyrrhizic acid binding behavior, with the average value (v) of glycyrrhizic acid molecules bound per protein molecule as the response value being used as a criterion for determination. […] In the region II of 0.02<CGA<1.00 mM, the average value v of bound GA molecules increases slowly but obviously, where the maximum fluorescence intensity is decreased. In the region III between 1.00 mM and 15.00 mM, a large number of synergistic binding appears with the formation of protein aggregates. Moreover, the values v under different pH conditions vary greatly in regions II and III (see Table 1). Acidic conditions can induce more GA molecules to bind with α-La in the process of non-cooperative binding and cooperative binding, which may be due to the fact that the structure of α-La is unfolded under acidic conditions, prompting more hydrophobic groups to be exposed, thus making α-La binding with more GA molecules.
# α-La [2] = biological target: T1, α-La; assay: Aggregation of GA in the presence of α-La (ANS fluorescence, CAC breakpoint); assay type: physicochemical; settings: in the presence of α-La and ANS
# Method: Measurement of aggregation: adding 8-Anilino-1-naphthalenesulfonic acid (ANS) solution (80 microliter (µL), 8 mmol/L) into 4 milliliter (mL) of the mixed solutions prepared in Embodiment 1 and Embodiment 2, respectively, and standing the solutions in the dark for 15 min; measuring the aggregation with a 1 centimeter (cm) light path cuvette, setting the excitation/emission slit of the instrument to 5.0/2.5 nano-meter (nm), the excitation wavelength at 355 nm, and recording the emission spectrum as 360 - 600 nm; recording the value of the most fluorescent intensity.
# The threshold concentration required to form small molecular aggregates on the surface of protein is called critical aggregation concentration (CAC), which is usually lower than critical micelle concentration (CMC). […] For example, the minimum value of fluorescence of α-La is recorded under neutral condition and 1.0 mM GA, while the minimum value is observed after adding 2.0 mM GA in acid solution; this is because the pH of the original solution of GA is 4.3, while the carboxylate of GA is protonated and its electrostatic charge is shielded when the pH is 2.5, which leads to the decrease of repulsion between GA molecules and promotes self-assembly of molecules to form aggregates; GA is easier to polymerize under acidic conditions when the concentration of α-La is constant, that is, it has a smaller CAC.
# [3] = pH of the original solution of GA; assay type: physicochemical
structure (smiles),measurement,setting,value
"CC1(C)[C@@H](O[C@H]2O[C@H](C(=O)O)[C@@H](O)[C@H](O)[C@H]2O[C@@H]2O[C@H](C(=O)O)[C@@H](O)[C@H](O)[C@H]2O)CC[C@]2(C)[C@H]3C(=O)C=C4[C@@H]5C[C@@](C)(C(=O)O)CC[C@]5(C)CC[C@@]4(C)[C@]3(C)CC[C@@H]12 [GA, glycyrrhizic acid]",average value v of GA molecules bound per protein molecule,"α-La [1]; pH 2.5, characteristic area I, CGA 0 - 0.20",0 - 8.96
same,average value v of GA molecules bound per protein molecule,"α-La [1]; pH 2.5, characteristic area II, CGA 0.20 - 1.00",8.96 - 48.95
same,average value v of GA molecules bound per protein molecule,"α-La [1]; pH 7.0, characteristic area I, CGA 0 - 0.20",0 - 5.22
same,average value v of GA molecules bound per protein molecule,"α-La [1]; pH 7.0, characteristic area II, CGA 0.20-1.00",5.22 - 39.49
same,average value v of GA molecules bound per protein molecule,"α-La [1]; pH 7.0, characteristic area III, CGA 1.00-15.00",39.49 - 998.19
same,"GA concentration at minimum value of fluorescence of α-La (breakpoint, CAC)",α-La [2]; acid solution,2.0 mM
same,"GA concentration at minimum value of fluorescence of α-La (breakpoint, CAC)",α-La [2]; neutral condition,1.0 mM
same,pH of the original solution of GA,[3],4.3
